Our source for the I84V/L90M fold change values is US20070190523A1 (priority 2002, published 2007).

One assay relates to mutant HIV-1 with I84V/L90M mutations. The class given is cell-based. Conditions: I84V/L90M mutant.
With `Cc1cccc(C)c1OCC(=O)NC(Cc1ccc(OCP(=O)(O)O)cc1)C(O)CN(CC(C)C)S(=O)(=O)c1ccc(N)cc1` (stereo not shown), the I84V/L90M fold change entry is reported as “− (≦3)”. On to `CC(C)CN(CC(O)C(Cc1ccc(OCP(=O)(OCc2ccccc2)OCc2ccccc2)cc1)NC(=O)OC1COC2OCCC12)S(=O)(=O)c1ccc(C(F)(F)F)cc1` (stereo not shown), for which the I84V/L90M fold change entry is “− (≦3)”. On to `CC(C)CN(CC(O)C(Cc1ccc(O)cc1)NC(=O)OC1COC2OCCC12)S(=O)(=O)c1cccc(N)c1` (stereo not shown) [OH, m-NH2], for which the I84V/L90M fold change result was “− (≦3)”. Still for that read-out and setting: the entry for `COc1ccc(S(=O)(=O)N(CC(C)C)CC(O)C(Cc2ccccc2)NC(=O)OC2COC3OCCC23)cc1O` (stereo not shown) is “− (≦3)”; for `CC(C)CN(CC(O)C(Cc1ccc(O)cc1)NC(=O)OC1COC2OCCC12)S(=O)(=O)c1ccc(N)cc1` (stereo not shown) [OH, p-NH2] it is “− (≦3)”.

With `CC(C)CN(CC(O)C(Cc1ccccc1)NC(=O)OC1COC2OCCC12)S(=O)(=O)c1ccc(OCP(=O)(O)O)cc1` (stereo not shown), the I84V/L90M fold change result is given as “− (≦3)”. Same read-out and setting: the entry for `CC(C)CN(CC(O)C(Cc1ccc(OCP(=O)(O)O)cc1)NC(=O)OC1COC2OCCC12)S(=O)(=O)c1cccc(N)c1` (stereo not shown) is “− (≦3)”; for `CC(C)CN(CC(O)C(Cc1ccc(OCP(=O)(OCc2ccccc2)OCc2ccccc2)cc1)NC(=O)OC1COC2OCCC12)S(=O)(=O)c1ccc(N)cc1` (stereo not shown) it is “− (≦3)”; for `CC(C)CN(CC(O)C(Cc1ccc(OCP(=O)(O)O)cc1)NC(=O)OC1COC2OCCC12)S(=O)(=O)c1ccc(N)cc1` (stereo not shown) it is “− (≦3)”. Same read-out and setting: with `CCOP(=O)(COc1ccc(CC(NC(=O)OC2COC3OCCC23)C(O)CN(CC(C)C)S(=O)(=O)c2ccc(N)cc2)cc1)OCC` (stereo not shown) the entry was “− (≦3)”; with `COc1ccc(S(=O)(=O)N(CC(C)C)CC(O)C(Cc2ccccc2)NC(=O)OC2COC3OCCC23)cc1OCP(=O)(O)O` (stereo not shown), “− (≦3)”.

With `COc1ccc(S(=O)(=O)N(CCN(C)C)CC(O)C(Cc2ccc(O)cc2)NC(=O)OC2COC3OCCC23)cc1` (stereo not shown), the I84V/L90M fold change entry is “− (≦3)”. The same measure, in the same setting: the entry for `CCNc1ccc(S(=O)(=O)N(CC(C)C)CC(O)C(Cc2ccc(OCP(=O)(OCC)OCC)cc2)NC(=O)OC2COC3OCCC23)cc1` (stereo not shown) is “− (≦3)”; for `CC(C)CN(CC(O)C(Cc1ccc(OCP(=O)(OCc2ccccc2)OCc2ccccc2)cc1)NC(=O)OC1COC2OCCC12)S(=O)(=O)c1ccc(C#N)cc1` (stereo not shown) it is “− (≦3)”; for `Cc1cccc(C)c1OCC(=O)NC(Cc1ccc(OCP(=O)(OCc2ccccc2)OCc2ccccc2)cc1)C(O)CN(CC(C)C)S(=O)(=O)c1ccc(N)cc1` (stereo not shown) it is “− (≦3)”. The same measure, in the same setting: with `COc1ccc(S(=O)(=O)N(CC(C)C)CC(O)C(Cc2ccc(OCc3ccccc3)cc2)NC(=O)OC2COC3OCCC23)cc1` (stereo not shown) the entry was “− (≦3)”. Still for that read-out and setting: with `CCOP(=O)(COc1ccc(CC(NC(=O)OC2COC3OCCC23)C(O)CN(CC(C)C)S(=O)(=O)c2ccc([N+](=O)[O-])cc2)cc1)OCC` (stereo not shown) the entry was “− (≦3)”; with `Cc1ccc(C(=O)NC(Cc2ccc(OCP(=O)(OCc3ccccc3)OCc3ccccc3)cc2)C(O)CN(CC(C)C)S(=O)(=O)c2ccc(N)cc2)cc1O` (stereo not shown), “+ (>3 to ≦10)”; with `CC(C)CN(CC(O)C(Cc1ccccc1)NC(=O)OC1COC2OCCC12)S(=O)(=O)c1ccc(O)cc1` (stereo not shown), “− (≦3)”. As to `CC(C)CN(CC(O)C(Cc1ccc(OCP(=O)(OCc2ccccc2)OCc2ccccc2)cc1)NC(=O)OC1COC2OCCC12)S(=O)(=O)c1cccc(N)c1` (stereo not shown), the I84V/L90M fold change result is given as “− (≦3)”.

The same assay, now with this note: fold difference in EC50 vs wild type, class symbols.
For `COc1ccc(S(=O)(=O)N(CC(C)C)CC(O)C(Cc2ccc(NCP(=O)(OCc3ccccc3)OCc3ccccc3)cc2)NC(=O)OC2COC3OCCC23)cc1` (stereo not shown), the I84V/L90M fold change result is reported as “− (≦3)”. As for `CCCCOC(=O)C(C)NP(=O)(COc1ccc(CC(NC(=O)OC2COC3OCCC23)C(O)CN(CC(C)C)S(=O)(=O)c2ccc(OC)cc2)cc1)Oc1ccccc1` (stereo not shown) [drawing 608 R1=OPh R2=Ala-Bu], the I84V/L90M fold change entry is given as “− (≦3)”. Consider `CCOP(=O)(CN1CC=C(CC(NC(=O)OC2COC3OCCC23)C(O)CN(CC(C)C)S(=O)(=O)c2ccc(OC)cc2)CC1)OCC` (stereo not shown), for which the I84V/L90M fold change entry is given as “+ (>3 to ≦10)”. The same measure, in the same setting: the entry for `CCOP(=O)(Cc1ccc(N(C)CC(NC(=O)OC2COC3OCCC23)C(O)CN(CC(C)C)S(=O)(=O)c2ccc(OC)cc2)cc1)OCC` (stereo not shown) is “+ (>3 to ≦10)”; for `COc1ccc(S(=O)(=O)N(CC(C)C)CC(O)C(Cc2ccc(OCP(=O)(Oc3ccccc3)OC(C)C(=O)OC(C)C)cc2)NC(=O)OC2COC3OCCC23)cc1` (stereo not shown) [drawing 609 R1=OPh R2=Lac-iPr] it is “− (≦3)”; for `CCOP(=O)(OCC)c1ccc(CC(NC(=O)OC2COC3OCCC23)C(O)CN(CC(C)C)S(=O)(=O)c2ccc(OC)cc2)cc1` (stereo not shown) [drawing 604 R1=OEt R2=OEt] it is “− (≦3)”.

In the case of `CCCCOC(=O)C(C)OP(=O)(COc1ccc(CC(NC(=O)OC2COC3OCCC23)C(O)CN(CC(C)C)S(=O)(=O)c2ccc(OC)cc2)cc1)Oc1ccccc1` (stereo not shown) [drawing 609 R1=OPh R2=Lac-Bu], the I84V/L90M fold change entry is “− (≦3)”.

Take `CCOC(=O)C(C)NP(=O)(COc1ccc(CC(NC(=O)OC2COC3OCCC23)C(O)CN(CC(C)C)S(=O)(=O)c2ccc(OC)cc2)cc1)OCc1ccccc1` (stereo not shown) [drawing 608 R1=OBn R2=Ala-Et]: the I84V/L90M fold change entry is recorded as “− (≦3)”. On the same count and under the same terms, with `CCOP(=O)(CON=Cc1ccc(CC(NC(=O)OC2COC3OCCC23)C(O)CN(CC(C)C)S(=O)(=O)c2ccc(OC)cc2)cc1)OCC` (stereo not shown) [drawing 615 R1=Et R2=Et] the entry was “− (≦3)”; with `COc1ccc(S(=O)(=O)N(CC(C)C)CC(O)C(Cc2ccc(OCP(=O)(O)OC(C)C(=O)O)cc2)NC(=O)OC2COC3OCCC23)cc1` (stereo not shown) [drawing 609 R1=OH R2=Lac-OH], “− (≦3)”. On to `CCNP(=O)(COc1ccc(CC(NC(=O)OC2COC3OCCC23)C(O)CN(CC(C)C)S(=O)(=O)c2ccc(OC)cc2)cc1)NCC` (stereo not shown) [drawing 606 R1=NHEt R2=NHEt], for which the I84V/L90M fold change entry is “− (≦3)”.

Consider `COc1ccc(S(=O)(=O)N(CC(C)C)CC(O)C(Cc2ccc(OCP(=O)(OCc3ccccc3)OCc3ccccc3)cc2)NC(=O)OC2COC3OCCC23)cc1` (stereo not shown) [drawing 602 R1=OBn R2=OBn], for which the I84V/L90M fold change entry is listed as “− (≦3)”. As for `CCOC(=O)C(NP(=O)(COc1ccc(CC(NC(=O)OC2COC3OCCC23)C(O)CN(CC(C)C)S(=O)(=O)c2ccc(OC)cc2)cc1)NC(C(=O)OCC)C(C)C)C(C)C` (stereo not shown) [drawing 606 R1=Val-Et R2=Val-Et], the I84V/L90M fold change entry is on record as “− (≦3)”. Still for that read-out and setting: the entry for `CCCCOC(=O)CNP(=O)(COc1ccc(CC(NC(=O)OC2COC3OCCC23)C(O)CN(CC(C)C)S(=O)(=O)c2ccc(OC)cc2)cc1)Oc1ccccc1` (stereo not shown) [drawing 608 R1=OPh R2=Gly-Bu] is “− (≦3)”; for `CCOP(=O)(CNc1ccc(CC(NC(=O)OC2COC3OCCC23)C(O)CN(CC(C)C)S(=O)(=O)c2ccc(OC)cc2)cc1)OCC` (stereo not shown) it is “− (≦3)”.

Turning to `CCOP(=O)(OCC)c1ccc(CN(C)CC(NC(=O)OC2COC3OCCC23)C(O)CN(CC(C)C)S(=O)(=O)c2ccc(OC)cc2)cc1` (stereo not shown), the I84V/L90M fold change result is on record as “− (≦3)”.

Turning to `COC(=O)N[C@H](C(=O)N[C@@H](Cc1ccccc1)[C@@H](O)CN(Cc1ccc(-c2ccccn2)cc1)NC(=O)[C@@H](NC(=O)OC)C(C)(C)C)C(C)(C)C` [Atazanavir, reference compound], the I84V/L90M fold change result is listed as “+++ (>30)”.
